Data as given in PubChem BioAssay (NCI).
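Method: 48-hour compound exposure of cells in 96-well plates, five concentrations, linear interpolation of endpoints. At the TGI there is no net growth.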

How the values were obtained:
Assay in all cases: inhibition of tumour cell growth, NCI panel, 48 h
786-0 renal = test system: 786-0 renal
A549 NSCLC = test system: A549 NSCLC
ACHN renal = test system: ACHN renal
EKVX NSCLC = test system: EKVX NSCLC
HCT-116 colon = test system: HCT-116 colon
HS 578T breast = test system: HS 578T breast
MALME-3M melanoma = test system: MALME-3M melanoma
NCI-H23 lung = test system: NCI-H23 lung
SF-268 CNS = test system: SF-268 CNS
SK-OV-3 ovarian = test system: SK-OV-3 ovarian

SMILES: O=C(O)C12C3C4(C(=O)O)C1C1(C(=O)O)C2C3(C(=O)O)C41 (centres undefined)
- TGI (786-0 renal): > 100 µM
- TGI (A549 NSCLC): > 100 µM
- TGI (ACHN renal): > 100 µM
- TGI (EKVX NSCLC): > 100 µM
- TGI (HCT-116 colon): > 100 µM
- TGI (HS 578T breast): > 100 µM
- TGI (MALME-3M melanoma): > 100 µM
- TGI (NCI-H23 lung): > 100 µM
- TGI (SF-268 CNS): > 100 µM

SMILES: COc1cccc(Nc2nc3c([nH]2)c(=O)n(C)c(=O)n3C)c1
- TGI (786-0 renal): > 10 µM
- TGI (A549 NSCLC): > 10 µM
- TGI (EKVX NSCLC): > 10 µM
- TGI (MALME-3M melanoma): > 10 µM
- TGI (NCI-H23 lung): > 10 µM
- TGI (SF-268 CNS): > 10 µM
- TGI (SK-OV-3 ovarian): > 10 µM

SMILES: Nc1cc2nc(-c3ccccc3)cn2cn1
- TGI (786-0 renal): > 100 µM
- TGI (A549 NSCLC): > 100 µM
- TGI (ACHN renal): > 100 µM
- TGI (EKVX NSCLC): 95.3 µM
- TGI (HCT-116 colon): > 100 µM
- TGI (MALME-3M melanoma): 70 µM
- TGI (NCI-H23 lung): > 100 µM
- TGI (SF-268 CNS): > 100 µM
- TGI (SK-OV-3 ovarian): > 100 µM

SMILES: CO[C@H](C)[C@](O)(C(=O)OCC1=CCN2CC[C@@H](O)[C@H]12)C(C)C
- TGI (786-0 renal): > 100 µM
- TGI (A549 NSCLC): > 100 µM
- TGI (ACHN renal): > 100 µM
- TGI (EKVX NSCLC): > 100 µM
- TGI (HCT-116 colon): > 100 µM
- TGI (HS 578T breast): > 100 µM
- TGI (NCI-H23 lung): > 100 µM
- TGI (SF-268 CNS): > 100 µM
- TGI (SK-OV-3 ovarian): > 100 µM

SMILES: C[C@@](Br)(C(=O)O)[C@H](Br)C(=O)O
- TGI (786-0 renal): > 100 µM
- TGI (A549 NSCLC): > 100 µM
- TGI (ACHN renal): > 100 µM
- TGI (EKVX NSCLC): > 100 µM
- TGI (HCT-116 colon): > 100 µM
- TGI (MALME-3M melanoma): > 100 µM
- TGI (NCI-H23 lung): > 100 µM
- TGI (SF-268 CNS): > 100 µM
- TGI (SK-OV-3 ovarian): > 100 µM

SMILES: COc1ccccc1Cn1c2c(c3cc(O)ccc31)C(=O)c1ccccc1C2=O
- TGI (786-0 renal): 45.5 µM
- TGI (A549 NSCLC): > 100 µM
- TGI (HCT-116 colon): > 100 µM
- TGI (HS 578T breast): > 100 µM
- TGI (MALME-3M melanoma): > 100 µM
- TGI (NCI-H23 lung): 95.8 µM
- TGI (SF-268 CNS): 86.1 µM
- TGI (SK-OV-3 ovarian): 10 µM

SMILES: CC(=O)OC1COC(N2c3ccccc3[C@@H]3CCc4c([nH]c5ccccc45)[C@@H]32)C(OC(C)=O)C1OC(C)=O (mixture of isomers)
- TGI (A549 NSCLC): > 100 µM
- TGI (EKVX NSCLC): > 100 µM
- TGI (HCT-116 colon): > 100 µM
- TGI (HS 578T breast): > 100 µM
- TGI (MALME-3M melanoma): > 100 µM
- TGI (NCI-H23 lung): > 100 µM
- TGI (SF-268 CNS): > 100 µM
- TGI (SK-OV-3 ovarian): > 100 µM

SMILES: COc1cc2c3cc1Oc1cc(ccc1O)C[C@@H]1c4c(cc(OC)c(O)c4Oc4ccc(cc4)C[C@@H]3[N+](C)(C)CC2)CC[N+]1(C)C
- TGI (786-0 renal): > 100 µM
- TGI (A549 NSCLC): > 100 µM
- TGI (ACHN renal): > 100 µM
- TGI (EKVX NSCLC): > 100 µM
- TGI (HCT-116 colon): > 100 µM
- TGI (HS 578T breast): 85.1 µM
- TGI (MALME-3M melanoma): 74.4 µM
- TGI (NCI-H23 lung): > 100 µM
- TGI (SF-268 CNS): > 100 µM

SMILES: Cc1ccc(S(=O)(=O)N2CCc3cc(O)c([N+](=O)[O-])cc32)cc1
- TGI (786-0 renal): > 100 µM
- TGI (A549 NSCLC): > 100 µM
- TGI (ACHN renal): > 100 µM
- TGI (HCT-116 colon): > 100 µM
- TGI (HS 578T breast): > 100 µM
- TGI (MALME-3M melanoma): > 100 µM
- TGI (NCI-H23 lung): > 100 µM
- TGI (SF-268 CNS): > 100 µM
- TGI (SK-OV-3 ovarian): > 100 µM

SMILES: CC1=NN(c2cccc(Cl)c2)C2(C1=Cc1ccc(N(C)C)cc1)C(Cl)C(=O)N2c1nc2ccccc2s1 (centres undefined)
- TGI (786-0 renal): > 100 µM
- TGI (ACHN renal): > 100 µM
- TGI (EKVX NSCLC): > 100 µM
- TGI (HCT-116 colon): > 100 µM
- TGI (HS 578T breast): > 100 µM
- TGI (NCI-H23 lung): > 100 µM
- TGI (SF-268 CNS): 52.4 µM
- TGI (SK-OV-3 ovarian): > 100 µM

SMILES: C=C1C[C@@H]2CC[C@@]34CC5O[C@H]6C(O[C@H]7CC[C@H](CC(=O)O[C@@H]8[C@@H](C)[C@@H]9O[C@@H]%10C[C@]%11(C[C@@H]%12O[C@]%13(C[C@H](C)[C@@H]%14O[C@@H]%15CC(C(COC(C)=O)OC(C)=O)O[C@@H]%15C[C@@H]%14O%13)C[C@H](C)[C@@H]%12O%11)O[C@@H]%10C[C@@H]9O[C@H]8CC8O[C@@H](CC[C@@H]1O2)C[C@@H](C)C8(O)CO)O[C@@H]7[C@@H]6O3)[C@H]5O4 (some centres undefined)
- TGI (786-0 renal): > 1 µM
- TGI (A549 NSCLC): > 1 µM
- TGI (ACHN renal): > 1 µM
- TGI (EKVX NSCLC): > 1 µM
- TGI (HCT-116 colon): > 1 µM
- TGI (HS 578T breast): 0.801 µM
- TGI (NCI-H23 lung): 0.997 µM
- TGI (SF-268 CNS): > 0.955 µM
- TGI (SK-OV-3 ovarian): > 1 µM

SMILES: C[C@@H](CCO)OC1OC(COC(=O)C(C)(C)C)C(OC(=O)C(C)(C)C)C(OC(=O)C(C)(C)C)C1OC(=O)C(C)(C)C (some centres undefined)
- TGI (786-0 renal): > 100 µM
- TGI (A549 NSCLC): > 100 µM
- TGI (ACHN renal): > 100 µM
- TGI (EKVX NSCLC): > 100 µM
- TGI (HCT-116 colon): > 100 µM
- TGI (HS 578T breast): > 100 µM
- TGI (NCI-H23 lung): > 100 µM
- TGI (SF-268 CNS): > 100 µM
- TGI (SK-OV-3 ovarian): > 100 µM

SMILES: CCc1nc2c([nH]1)C(=O)c1ccccc1C2=O
- TGI (786-0 renal): > 100 µM
- TGI (A549 NSCLC): > 100 µM
- TGI (ACHN renal): > 100 µM
- TGI (EKVX NSCLC): > 100 µM
- TGI (HCT-116 colon): 80.6 µM
- TGI (MALME-3M melanoma): 49.5 µM
- TGI (NCI-H23 lung): > 100 µM
- TGI (SF-268 CNS): > 100 µM
- TGI (SK-OV-3 ovarian): > 100 µM

SMILES: COC(=O)c1ccc2cc(O)ccc2c1
- TGI (786-0 renal): > 100 µM
- TGI (A549 NSCLC): > 100 µM
- TGI (ACHN renal): > 100 µM
- TGI (EKVX NSCLC): > 100 µM
- TGI (HCT-116 colon): > 100 µM
- TGI (MALME-3M melanoma): > 100 µM
- TGI (NCI-H23 lung): > 100 µM
- TGI (SF-268 CNS): > 100 µM
- TGI (SK-OV-3 ovarian): > 100 µM

SMILES: CC1OC2OC3C(OCC(O)C3O)OC(=O)[C@]34CCC(C)(C)CC3C3=CCC5[C@@]6(C)C[C@H](O)[C@H](OC7OC(CO)C(O)C(O)C7OC7OC(COC(=O)CC(C)(O)CC(=O)OC1C(OC1OC(CO)C(O)C(O)C1O)C2O)C(O)C(O)C7O)[C@@](C)(CO)C6CC[C@@]5(C)[C@]3(C)CC4 (some centres undefined)
- TGI (786-0 renal): 11.9 µM
- TGI (A549 NSCLC): 0.293 µM
- TGI (ACHN renal): 8.36 µM
- TGI (HCT-116 colon): 10.3 µM
- TGI (HS 578T breast): 18.6 µM
- TGI (MALME-3M melanoma): 6.96 µM
- TGI (NCI-H23 lung): 3.23 µM
- TGI (SF-268 CNS): 10.5 µM
- TGI (SK-OV-3 ovarian): 22.4 µM

SMILES: CCC1(c2ccc(OC)c(OC)c2)CCN2C(=O)C(O)CC21 (centres undefined)
- TGI (786-0 renal): > 100 µM
- TGI (A549 NSCLC): > 100 µM
- TGI (ACHN renal): > 100 µM
- TGI (EKVX NSCLC): > 100 µM
- TGI (HCT-116 colon): > 100 µM
- TGI (NCI-H23 lung): > 100 µM
- TGI (SF-268 CNS): > 100 µM
- TGI (SK-OV-3 ovarian): > 100 µM

SMILES: CC1=CC(O)CC(C)(C)C1/C=C/C(C)=C/C=C/C(C)=C/C=C/C=C(C)/C=C/C=C(C)/C=C/C1=C(C)CC(O)CC1(C)C (centres undefined)
- TGI (786-0 renal): 36.7 µM
- TGI (A549 NSCLC): > 100 µM
- TGI (ACHN renal): 31.1 µM
- TGI (EKVX NSCLC): > 100 µM
- TGI (HCT-116 colon): 30 µM
- TGI (HS 578T breast): > 100 µM
- TGI (MALME-3M melanoma): 29 µM
- TGI (NCI-H23 lung): 56.9 µM
- TGI (SK-OV-3 ovarian): > 100 µM

SMILES: O=c1ccn([C@@H]2C=C(CO)[C@@H](O)[C@H]2O)c(=O)[nH]1
- TGI (A549 NSCLC): > 625 µM
- TGI (HCT-116 colon): > 625 µM
- TGI (MALME-3M melanoma): > 625 µM
- TGI (NCI-H23 lung): > 625 µM
- TGI (SF-268 CNS): > 625 µM
- TGI (SK-OV-3 ovarian): > 625 µM

SMILES: O=C(/C=C/CC(O)(c1ccccc1)c1ccccc1)Nc1ccccc1Cl
- TGI (ACHN renal): > 100 µM
- TGI (EKVX NSCLC): > 100 µM
- TGI (HCT-116 colon): > 100 µM
- TGI (MALME-3M melanoma): > 100 µM
- TGI (NCI-H23 lung): > 100 µM
- TGI (SF-268 CNS): > 100 µM
- TGI (SK-OV-3 ovarian): > 100 µM

SMILES: Oc1ccc(C[C@@H]2CN[C@H](Cc3ccc(O)c(Br)c3)CN2)cc1
- TGI (786-0 renal): > 100 µM
- TGI (A549 NSCLC): > 100 µM
- TGI (ACHN renal): > 100 µM
- TGI (EKVX NSCLC): > 100 µM
- TGI (HCT-116 colon): > 100 µM
- TGI (HS 578T breast): > 100 µM
- TGI (NCI-H23 lung): > 100 µM
- TGI (SF-268 CNS): > 100 µM
- TGI (SK-OV-3 ovarian): > 100 µM

SMILES: CCOP(=O)(COCCn1nc(Br)c(=O)[nH]c1=O)OCC
- TGI (A549 NSCLC): > 100 µM
- TGI (ACHN renal): > 100 µM
- TGI (EKVX NSCLC): > 100 µM
- TGI (HS 578T breast): > 100 µM
- TGI (MALME-3M melanoma): > 100 µM
- TGI (NCI-H23 lung): > 100 µM
- TGI (SF-268 CNS): > 100 µM

SMILES: CCOC(=O)C(NC(=O)CC)(Nc1ccccc1F)C(F)(F)F (centres undefined)
- TGI (A549 NSCLC): > 100 µM
- TGI (ACHN renal): > 100 µM
- TGI (EKVX NSCLC): > 100 µM
- TGI (HCT-116 colon): > 100 µM
- TGI (HS 578T breast): > 100 µM
- TGI (NCI-H23 lung): > 100 µM
- TGI (SF-268 CNS): > 100 µM
- TGI (SK-OV-3 ovarian): > 100 µM
